Data as given in publication PMC7359870 (Journal of the American Chemical Society, 2020).
“Also recorded” adds a separate entry of the source. Starred links: 1 amine or outer side, 2 acyl side, 3 side chain; linkers in the order of their positions; H or OH if unused. Non-standard residues stand in square brackets, D forms with d. Residues, ends and D or L forms follow the SMILES beside them. *: point of attachment. X1 = CC(C)C[C@H](NC(=O)N(Cc1ccccc1)C[C@@H](O)[C@H](Cc1ccccc1)N*)C(=O)N[C@H](C(N)=O)C(C)C; X2 = CC(C)[C@H](NC(=O)[C@H](C)NC(=O)N(Cc1ccccc1)C[C@@H](O)[C@H](Cc1ccccc1)N*)C(N)=O; NH(CH2)8CO = O=C(CCCCCCCCN[*:1])[*:2]; Boc = CC(C)(C)OC(=O)*; Aib = CC(C)(N)C(=O)O; Ava = NCCCCC(=O)O

Assays:
purified γ-secretase = purified γ-secretase (Homo sapiens, UniProt P49768); assay: Purified enzyme assay: inhibition of γ-secretase; assay type: biochemical
γ-secretase [1] = target: T1, γ-secretase (Homo sapiens, UniProt P49768); assay: Enzyme inhibition kinetics; assay type: biochemical
γ-secretase [2] = target: T1, γ-secretase; assay: Cross-competition kinetic experiment between two inhibitors; assay type: biochemical; details: for cross-competition with HPI 2 for binding: second inhibitor HPI 2 (docking site); for cross-competition with TSA 17 for binding: second inhibitor TSA 17 (active site)
[3] = target: presenilin-1 (PS1) N-terminal fragment (NTF) of γ-secretase (Homo sapiens, UniProt P49768); details: solubilized lysates from γ-secretase-expressing human embryonic kidney 293 cells

Row | Structure (SMILES) | type of inhibition (enzyme inhibition kinetics) (γ-secretase [1]) | labelling of PS1 NTF by active-site-directed photoprobe TSA-Bpa-Bt [3] | labelling of PS1 NTF by docking-site-directed photoprobe HPI-Bpa-Bt [3] | also measured
1 | CC[C@H](C)[C@H](NC(=O)[C@@H](NC(=O)[C@@H](NC(=O)C(C)(C)NC(=O)CNC(=O)[C@@H](NC(=O)OC(C)(C)C)C(C)C)C(C)C)C(C)C)C(=O)NC(C)(C)C(=O)N[C@@H](Cc1ccccc1)C(=O)N[C@H](C(=O)NC(C)(C)C(=O)NCCCCC(=O)N[C@H](C(=O)N[C@@H](Cc1ccccc1)[C@H](O)CN(Cc1ccccc1)C(=O)N[C@@H](CC(C)C)C(=O)N[C@H](C(N)=O)C(C)C)C(C)C)C(C)C [Compound 5, Boc-Val-Gly-Aib-Val-Val-Ile-Aib-Phe-Val-Aib-NH(CH2)4CO-Val-Phe-ψ-Phe-Leu-Val-NH2] (Boc-VG[Aib]VVI[Aib]FV[Aib][Ava]V-X1) |  |  |  | potency compared to TSA 1 or HPI 2 (fold increase) (purified γ-secretase; relative to IC50 of TSA 1 or HPI 2): 4-to-6 fold
2 | CC[C@H](C)[C@H](NC(=O)[C@@H](NC(=O)[C@@H](NC(=O)C(C)(C)NC(=O)CNC(=O)[C@@H](NC(=O)OC(C)(C)C)C(C)C)C(C)C)C(C)C)C(=O)NC(C)(C)C(=O)N[C@@H](Cc1ccccc1)C(=O)N[C@H](C(=O)NC(C)(C)C(=O)NCCCCCCCCC(=O)N[C@H](C(=O)N[C@@H](Cc1ccccc1)[C@H](O)CN(Cc1ccccc1)C(=O)N[C@@H](CC(C)C)C(=O)N[C@H](C(N)=O)C(C)C)C(C)C)C(C)C [Compound 6, Boc-Val-Gly-Aib-Val-Val-Ile-Aib-Phe-Val-Aib-NH(CH2)8CO-Val-Phe-ψ-Phe-Leu-Val-NH2] (Boc-VG[Aib]VVI[Aib]FV[Aib][NH(CH2)8CO]V-X1) | noncompetitive inhibition | Decreased photolabelling; also recorded: decreased labelling | Decreased photolabelling; also recorded: decreased labelling | cross-competition with HPI 2 for binding (γ-secretase [2]): competed; cross-competition with HPI 2 for binding (γ-secretase [2]; listed as HPI-TSA 6): competes; cross-competition with TSA 17 for binding (γ-secretase [2]): competed; cross-competition with TSA 17 for binding (γ-secretase [2]; listed as HPI-TSA 6): competes
3 | CC[C@H](C)[C@H](NC(=O)[C@H](NC(=O)[C@H](NC(=O)C(C)(C)NC(=O)CNC(=O)[C@@H](NC(=O)OC(C)(C)C)C(C)C)C(C)C)C(C)C)C(=O)NC(C)(C)C(=O)N[C@@H](Cc1ccccc1)C(=O)N[C@H](C(=O)NC(C)(C)C(=O)NCCCCCCCCC(=O)N[C@H](C(=O)N[C@@H](Cc1ccccc1)[C@H](O)CN(Cc1ccccc1)C(=O)N[C@@H](CC(C)C)C(=O)N[C@H](C(N)=O)C(C)C)C(C)C)C(C)C [Compound 9, Boc-Val-Gly-Aib-^DVal-^D Val-Ile-Aib-Phe-Val-Aib-NH(CH2)8CO-Val-Phe-ψ-Phe-Leu-Val-NH2] (Boc-VG[Aib][dV][dV]I[Aib]FV[Aib][NH(CH2)8CO]V-X1) |  |  |  | reduction of inhibitory potency relative to 6 (purified γ-secretase; relative to HPI-TSA 6): decreased nearly eight-fold
4 | CC[C@H](C)[C@H](NC(=O)[C@@H](NC(=O)[C@@H](NC(=O)C(C)(C)NC(=O)CNC(=O)[C@@H](NC(=O)OC(C)(C)C)C(C)C)C(C)C)C(C)C)C(=O)NC(C)(C)C(=O)N[C@@H](Cc1ccccc1)C(=O)N[C@H](C(=O)NC(C)(C)C(=O)NCCCCCCCCC(=O)N[C@H](C(=O)N[C@@H](Cc1ccccc1)[C@H](O)CN(Cc1ccccc1)C(=O)N[C@@H](C)C(=O)N[C@H](C(N)=O)C(C)C)C(C)C)C(C)C [Compound 16] (Boc-VG[Aib]VVI[Aib]FV[Aib][NH(CH2)8CO]V-X2; N-terminus and C-terminus assumed) | noncompetitive inhibition | Decreased photolabelling; also recorded: decreased labelling | Decreased photolabelling; also recorded: decreased labelling | 
